Experimental data: patent publication US8460669B2, “Compositions and methods for identifying response targets and treating flavivirus infection responses” (Academia Sinica, priority 2005, dated 2013)

What was measured:
KCR.Fc = biological target: T1, KCR.Fc (Mus musculus, UniProt P70194); assay: Immunosorbent dot binding assay with KCR.Fc; conditions: polysaccharide immobilized on PVDF membrane; receptor.Fc 1 μg/mL
T1 construct: the extracellular domains of DVLR1/CLEC5A (MDL-1), Dectin-1, KCR, and DC-SIGN (as a positive control) were fused to the Fc portion of human IgG1; made in house; host or cells: 293-F (FreeStyle 293) cells
T1 sequence (P70194 70-548 limits assumed): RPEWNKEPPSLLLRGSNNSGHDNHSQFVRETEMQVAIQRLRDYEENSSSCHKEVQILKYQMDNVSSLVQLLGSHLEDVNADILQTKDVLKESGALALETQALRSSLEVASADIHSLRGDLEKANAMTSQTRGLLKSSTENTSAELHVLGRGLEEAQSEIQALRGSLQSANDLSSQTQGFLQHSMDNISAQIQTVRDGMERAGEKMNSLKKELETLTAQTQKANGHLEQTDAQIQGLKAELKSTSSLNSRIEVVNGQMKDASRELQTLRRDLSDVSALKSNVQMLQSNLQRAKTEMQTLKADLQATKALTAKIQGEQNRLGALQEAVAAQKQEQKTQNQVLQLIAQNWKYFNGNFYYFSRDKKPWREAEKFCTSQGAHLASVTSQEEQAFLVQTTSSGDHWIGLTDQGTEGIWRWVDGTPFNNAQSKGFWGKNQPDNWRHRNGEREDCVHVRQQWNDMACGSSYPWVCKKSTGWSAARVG

TLT-2.Fc = biological target: T2, TLT-2.Fc (Homo sapiens, UniProt Q5T2D2); assay: Immunosorbent dot binding assay with TLT-2.Fc; conditions: polysaccharide immobilized on PVDF membrane; receptor.Fc 1 μg/mL
T2 construct: The extracellular domains of lectin receptors, TREMs and TLTs were cloned by the reverse-transcriptase polymerase chain reaction (RT-PCR); made in house; host or cells: 293-F (FreeStyle 293) cells
T2 sequence (Q5T2D2 19-268 limits assumed): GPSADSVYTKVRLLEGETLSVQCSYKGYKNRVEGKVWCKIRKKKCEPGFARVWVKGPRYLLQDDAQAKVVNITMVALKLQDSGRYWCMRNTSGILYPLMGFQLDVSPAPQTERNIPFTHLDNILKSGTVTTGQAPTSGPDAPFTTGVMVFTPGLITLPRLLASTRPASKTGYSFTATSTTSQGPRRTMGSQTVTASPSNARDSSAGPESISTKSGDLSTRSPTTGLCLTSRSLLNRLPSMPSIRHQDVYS

DC-SIGN = biological target: T3, DC-SIGN (Homo sapiens, UniProt Q9NNX6); assay: Sugar competition, biotinylated DV binding to DC-SIGN-transfected 293T cells; assay type: cell-based; conditions: flow cytometry
T3 construct: expressed in transfected cells; host or cells: 293T cells
T3 sequence (Q9NNX6 1-404): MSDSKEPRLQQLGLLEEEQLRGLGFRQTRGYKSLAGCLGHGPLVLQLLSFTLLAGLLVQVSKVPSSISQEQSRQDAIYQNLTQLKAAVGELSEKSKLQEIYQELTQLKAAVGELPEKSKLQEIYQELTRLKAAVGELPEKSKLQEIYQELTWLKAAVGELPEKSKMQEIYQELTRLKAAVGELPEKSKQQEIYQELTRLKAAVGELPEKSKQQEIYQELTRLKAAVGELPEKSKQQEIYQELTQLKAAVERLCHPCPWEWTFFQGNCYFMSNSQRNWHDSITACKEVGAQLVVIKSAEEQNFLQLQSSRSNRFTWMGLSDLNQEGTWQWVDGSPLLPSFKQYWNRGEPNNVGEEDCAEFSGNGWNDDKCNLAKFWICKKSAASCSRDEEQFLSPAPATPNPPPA
Experimental: In FIG. 16b, complexes of DV (5×10^6 PFU) with receptor.Fc (5 μg) were immunoprecipitated and detected on westerns with mAb to DV envelope (E) protein. […] FIGS. 16d and 16e show sugar competition assays wherein both DC-SIGN (CLEC4L) and DVLR1/CLEC5A increase DV binding to human 293T cells (FIG. 16d), while addition of sugars inhibits biotinylated DV binding to DC-SIGN- (left panel) or DLVR1/CLEC5A- (right panel) transfected 293T cells in a dose-dependent manner as determined by flow cytometry (FIG. 16e). According to FIG. 16e, MFI represents mean fluorescence intensity. Units (U) for monosaccharide (mannose and fucose) and polysaccharide (mannan) are mM and mg/ml, respectively. […] Data are expressed as the mean±s.d. of three independent experiments. Two-tailed, Student's t-tests were performed.
There are two conserved N-linked glycosylation sites at Asn-67 and Asn-153 of E protein (Pokidysheva, E. et al., Cell 124:485-93 (2006)), and the attached glycans (with terminal fucose and mannose) have been implicated in cellular attachment and viral entry (Modis, Y. et al., J. Virol. 79:1223-1231 (2005)). To investigate the participation of glycans in the association of DVLR1/CLEC5A with DV, virions were incubated with fucose, mannose, or mannan; where the last two sugars are the ligands for DC-SIGN (Mitchell et al., J. Biol. Chem. 276: 28939-28945 ([…])).

Row | interaction with KCR.Fc in dot-binding assay (KCR.Fc) | interaction with TLT-2.Fc in dot-binding assay (TLT-2.Fc) | Substance | inhibition of the DC-SIGN-DV interaction (DC-SIGN)
1 | only Dectin-1.Fc can bind | only Dectin-1.Fc can bind | β-1,3-glucan [b-glucan] | –
2 | – | – | mannan | dose-dependent inhibition
